According to publication PMC4869360, “An allosteric role for receptor activity-modifying proteins in defining GPCR pharmacology” (Cell Discovery, 2016):
Where no end group is shown, it is not given here.

Tests used:
[1] = tested on: CT(a) receptor ECD alanine mutants; assay: 125I-hCT radioligand binding, CT(a) mutants; set-up: species or system human; details: Ala mutation of W79, F99, D101, F102, H121, W128 and Y131; ~50 pM, 1 h, 37 °C, whole Cos-7 cells
Excerpt: transfected with CT(a). […] Data are
binding observed for each peptide.
For C, D and E statistical

[2] = Ala scan of an amylin analogue; cited from earlier work
Excerpt: Of the residues impacting on peptide function only R126 contributed to amylin or CGRP function but not that of CT. R126 in the CTR/RAMP complex sits in close proximity to W84 (RAMP1) that may form an interaction with the peptide C-terminus for amylin and CGRP, and thus may contribute to the orientation of the peptide C-terminus to allow this interaction. The net contribution of the RAMP interaction is a reordering of residues in loop 5 that facilitates the peptide turn of amylin and CGRP and interaction of the C-terminus with the W84 of the RAMP, with reorientation of loop 4 residues facilitat ...

125I-hCT binding [1] | Substance | binding [2]
significantly reduced | ^125I-hCT: hCT radioiodinated with iodination bead, purified by reverse-phase HPLC | 
 | T30: amylin analogue with T30 substitution, from Ala scan of ref 34 (KCNTATCATQRLANFLVHSSNNFGAILSSANVGSNTY; ends and bridges not checked; cysteine pairing not given here; UniProt P10997 34-70, looked up, variant T30A) | abolishing binding
 | V32: amylin analogue with V32 substitution, from Ala scan of ref 34 (KCNTATCATQRLANFLVHSSNNFGAILSSTNAGSNTY; ends and bridges not checked; cysteine pairing not given here; UniProt P10997 34-70, looked up, variant V32A) | abolishing binding
